US10479780B2, “Aminopyrazole derivatives” (Chugai Seiyaku Kabushiki Kaisha, priority 2015, dated 2019)

Experiments:
Type in all cases: biochemical
human Lck enzyme = biological target: T1, human Lck enzyme (Homo sapiens, UniProt P06239); assay: Lck enzyme inhibitory activity (time-resolved fluorometry, biotinylated peptide phosphorylation); details: biotinylated peptide phosphorylation, read-out: LCK_IC50
T1 construct: purchased Carna Biosciences, Inc. 08-170
Description: (§1) 3. Lck Enzyme Inhibitory Activity Lck inhibitory activity was determined based on activity of inhibiting phosphorylation reaction of a biotinylated peptide (EGPWLEEEEEAYGWMDF) using a human Lck enzyme (manufactured by Carna Biosciences, Inc., cat 08-170). The phosphorylated biotinylated peptide was detected by time-resolved fluorometry using an anti-phosphorylated tyrosine antibody conjugated to europium cryptate, and streptavidin conjugated to XL665, an allophycocyanin derivative. The 50% inhibitory concentration (IC50) was calculated from the inhibition rate relative to the control group without containing the test substance.

human Src enzyme = biological target: T2, human Src enzyme (Homo sapiens, UniProt P12931); assay: Src enzyme inhibitory activity (time-resolved fluorometry, biotinylated peptide phosphorylation); details: biotinylated peptide phosphorylation, read-out: SRC_IC50
T2 construct: purchased Carna Biosciences, Inc. 08-173
Description: as §1, with “2. Src” for “3. Lck”, “Src” for “Lck”, “08-173).” for “08-170).”

human Yes1 enzyme = biological target: T3, human Yes1 enzyme (Homo sapiens, UniProt P07947); assay: Yes1 enzyme inhibitory activity (time-resolved fluorometry, biotinylated peptide phosphorylation); details: biotinylated peptide phosphorylation, read-out: YES_IC50
T3 construct: made in house
Description: as §1, with “1. Yes1” for “3. Lck”, “Yes1” for “Lck”, “prepared using a baculovirus expression system.” for “(manufactured by Carna Biosciences, Inc., cat 08-170).”

T1 sequence (P06239 whole entry): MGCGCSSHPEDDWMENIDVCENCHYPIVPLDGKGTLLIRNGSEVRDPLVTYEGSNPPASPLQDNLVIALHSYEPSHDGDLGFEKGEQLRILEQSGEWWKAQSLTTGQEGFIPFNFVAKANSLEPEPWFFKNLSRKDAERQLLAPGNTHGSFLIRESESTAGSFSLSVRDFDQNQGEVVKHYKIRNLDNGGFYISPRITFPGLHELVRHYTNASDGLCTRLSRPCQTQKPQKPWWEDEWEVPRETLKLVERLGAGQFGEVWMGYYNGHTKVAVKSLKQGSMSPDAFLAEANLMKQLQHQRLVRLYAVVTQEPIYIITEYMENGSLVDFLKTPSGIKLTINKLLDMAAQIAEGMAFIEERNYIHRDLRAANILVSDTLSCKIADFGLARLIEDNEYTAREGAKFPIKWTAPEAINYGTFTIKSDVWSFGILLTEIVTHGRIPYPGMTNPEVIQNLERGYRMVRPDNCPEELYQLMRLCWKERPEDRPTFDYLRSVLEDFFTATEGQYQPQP
T2 sequence (P12931 whole entry): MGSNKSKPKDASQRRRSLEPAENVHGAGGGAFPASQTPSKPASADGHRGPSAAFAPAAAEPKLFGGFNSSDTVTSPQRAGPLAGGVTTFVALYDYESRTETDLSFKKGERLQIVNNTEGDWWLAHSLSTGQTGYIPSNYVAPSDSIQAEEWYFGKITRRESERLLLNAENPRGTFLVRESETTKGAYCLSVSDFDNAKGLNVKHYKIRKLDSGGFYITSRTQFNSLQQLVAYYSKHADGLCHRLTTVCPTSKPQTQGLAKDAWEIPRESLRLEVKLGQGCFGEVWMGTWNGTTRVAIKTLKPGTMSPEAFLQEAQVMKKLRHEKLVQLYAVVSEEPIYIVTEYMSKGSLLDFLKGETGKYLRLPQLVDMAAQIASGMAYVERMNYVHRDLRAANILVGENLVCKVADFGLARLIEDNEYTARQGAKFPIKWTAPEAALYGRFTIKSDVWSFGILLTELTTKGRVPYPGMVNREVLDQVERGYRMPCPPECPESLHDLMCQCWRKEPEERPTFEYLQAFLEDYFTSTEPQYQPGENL
T3 sequence (P07947 whole entry): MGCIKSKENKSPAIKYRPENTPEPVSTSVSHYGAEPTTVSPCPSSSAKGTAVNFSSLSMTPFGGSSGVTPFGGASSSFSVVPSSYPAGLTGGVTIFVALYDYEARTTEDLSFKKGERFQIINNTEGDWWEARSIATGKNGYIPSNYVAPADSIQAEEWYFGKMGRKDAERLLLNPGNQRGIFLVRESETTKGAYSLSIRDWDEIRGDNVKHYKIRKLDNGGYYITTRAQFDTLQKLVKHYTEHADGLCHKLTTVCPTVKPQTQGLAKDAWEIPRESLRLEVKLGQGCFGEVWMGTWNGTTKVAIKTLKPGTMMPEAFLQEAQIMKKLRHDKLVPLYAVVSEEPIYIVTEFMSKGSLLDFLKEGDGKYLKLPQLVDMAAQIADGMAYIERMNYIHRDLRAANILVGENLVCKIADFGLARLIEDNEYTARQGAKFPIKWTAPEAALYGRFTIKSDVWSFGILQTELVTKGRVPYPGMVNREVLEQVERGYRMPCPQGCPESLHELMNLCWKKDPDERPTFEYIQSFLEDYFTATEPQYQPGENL

IC50 (human Lck enzyme) [nM] | IC50 (human Src enzyme) [nM] | IC50 (human Yes1 enzyme) [nM] | Structure (SMILES)
3.4 | 5.1 | 0.81 | CC(C)N1CCC(c2cc3cc(C(=O)c4cnn(-c5ccc(Oc6ccccc6F)cc5F)c4N)[nH]c3cc2F)CC1 [Example 4-2-009, [5-amino-1-[2-fluoro-4-(2-fluorophenoxy)phenyl]pyrazol-4-yl]-[6-fluoro-5-(1-propan-2-ylpiperidin-4-yl)-1H-indol-2-yl]methanone]
1.9 | 4.7 | 1.2 | Cc1cc(Oc2ccccc2F)ccc1-n1ncc(C(=O)c2cc3cc(F)c(C4CCN(C(C)C)CC4)cc3[nH]2)c1N [Example 4-2-010, [5-amino-1-[4-(2-fluorophenoxy)-2-methylphenyl]pyrazol-4-yl]-[5-fluoro-6-(1-propan-2-ylpiperidin-4-yl)-1H-indol-2-yl]methanone]
2.7 | 11 | 2.2 | Cc1cc(Oc2cccc(F)c2F)ccc1-n1ncc(C(=O)c2cc3cc(F)c(C4CCN(C(C)C)CC4)cc3[nH]2)c1N [Example 4-2-011, [5-amino-1-[4-(2,3-difluorophenoxy)-2-methylphenyl]pyrazol-4-yl][5-fluoro-6-(1-propan-2-ylpiperidin-4-yl)-1H-indol-2-yl]methanone]
4.9 | 9.4 | 2.2 | Cc1cc(Oc2ccccc2Cl)ccc1-n1ncc(C(=O)c2cc3cc(F)c(C4CCN(C(C)C)CC4)cc3[nH]2)c1N [Example 4-2-012, [5-amino-1-[4-(2-chlorophenoxy)-2-methylphenyl]pyrazol-4-yl]-[5-fluoro-6-(1-propan-2-ylpiperidin-4-yl)-1H-indol-2-yl]methanone]
9.7 | 49 | 1.1 | Cc1cc(Oc2cccc(Cl)c2)ccc1-n1ncc(C(=O)c2cc3cc(F)c(C4CCN(C(C)C)CC4)cc3[nH]2)c1N [Example 4-2-013, [5-amino-1-[4-(3-chlorophenoxy)-2-methylphenyl]pyrazol-4-yl]-[5-fluoro-6-(1-propan-2-ylpiperidin-4-yl)-1H-indol-2-yl]methanone]
62 | 510 | 18 | Cc1cc(-n2ncc(C(=O)c3cc4cc(F)c(C5CCN(C(C)C)CC5)cc4[nH]3)c2N)ccc1Oc1ccccc1F [Example 4-2-014, [5-amino-1-[4-(2-fluorophenoxy)-3-methylphenyl]pyrazol-4-yl]-[5-fluoro-6-(1-propan-2-ylpiperidin-4-yl)-1H-indol-2-yl]methanone]
10 | 19 | 0.67 | Cc1cc(Oc2ccccc2F)ccc1-n1ncc(C(=O)c2cc3cc(F)c(NS(=O)(=O)CCCF)cc3[nH]2)c1N [Example 4-2-015, N-[2-[5-amino-1-[4-(2-fluorophenoxy)-2-methylphenyl]pyrazole-4-carbonyl]-5-fluoro-1H-indol-6-yl]-3-fluoropropane-1-sulfonamide]
19 | 70 | 2.1 | Cc1cc(Oc2cccc(F)c2F)ccc1-n1ncc(C(=O)c2cc3cc(F)c(NS(=O)(=O)CCCF)cc3[nH]2)c1N [Example 4-2-016, N-[2-[5-amino-1-[4-(2,3-difluorophenoxy)-2-methylphenyl]pyrazole-4-carbonyl]-5-fluoro-1H-indol-6-yl]-3-fluoropropane-1-sulfonamide]
17 | 26 | 0.55 | Cc1cc(Oc2ccccn2)ccc1-n1ncc(C(=O)c2cc3cc(F)c(NS(=O)(=O)CCCF)cc3[nH]2)c1N [Example 4-2-017, N-[2-[5-amino-1-(2-methyl-4-pyridin-2-yloxyphenyl)pyrazole-4-carbonyl]-5-fluoro-1H-indol-6-yl]-3-fluoropropane-1-sulfonamide]
15 | 22 | 0.52 | Nc1c(C(=O)c2cc3cc(F)c(NS(=O)(=O)CCCF)cc3[nH]2)cnn1-c1ccc(Oc2ccccn2)cc1Cl [Example 4-2-018, N-[2-[5-amino-1-(2-chloro-4-pyridin-2-yloxyphenyl)pyrazole-4-carbonyl]-5-fluoro-1H-indol-6-yl]-3-fluoropropane-1-sulfonamide]
40 | 72 | 5.3 | Cc1cc(Oc2ccccc2F)cc(F)c1-n1ncc(C(=O)c2cc3cc(F)c(NS(=O)(=O)CCCF)cc3[nH]2)c1N [Example 4-2-019, N-[2-[5-amino-1-[2-fluoro-4-(2-fluorophenoxy)-6-methylphenyl]pyrazole-4-carbonyl]-5-fluoro-1H-indol-6-yl]-3-fluoropropane-1-sulfonamide]
11 | 59 | 2 | Cc1cc(Oc2ccccc2F)ncc1-n1ncc(C(=O)c2cc3cc(F)c(NS(=O)(=O)CCCF)cc3[nH]2)c1N [Example 4-2-020, N-[2-[5-amino-1-[6-(2-fluorophenoxy)-4-methylpyridin-3-yl]pyrazole-4-carbonyl]-5-fluoro-1H-indol-6-yl]-3-fluoropropane-1-sulfonamide]
8.6 | 43 | 1.5 | Cc1cc(Oc2c(F)cccc2F)ncc1-n1ncc(C(=O)c2cc3cc(F)c(NS(=O)(=O)CCCF)cc3[nH]2)c1N [Example 4-2-021, N-[2-[5-amino-1-[6-(2,6-difluorophenoxy)-4-methylpyridin-3-yl]pyrazole-4-carbonyl]-5-fluoro-1H-indol-6-yl]-3-fluoropropane-1-sulfonamide]
26 | 140 | 5.4 | Cc1cc(Oc2cccc(F)c2F)ncc1-n1ncc(C(=O)c2cc3cc(F)c(NS(=O)(=O)CCCF)cc3[nH]2)c1N [Example 4-2-022, N-[2-[5-amino-1-[6-(2,3-difluorophenoxy)-4-methylpyridin-3-yl]pyrazole-4-carbonyl]-5-fluoro-1H-indol-6-yl]-3-fluoropropane-1-sulfonamide]
47 | 84 | 1.7 | Cc1cc(Oc2ccccc2Cl)ncc1-n1ncc(C(=O)c2cc3cc(F)c(NS(=O)(=O)CCCF)cc3[nH]2)c1N [Example 4-2-023, N-[2-[5-amino-1-[6-(2-chlorophenoxy)-4-methylpyridin-3-yl]pyrazole-4-carbonyl]-5-fluoro-1H-indol-6-yl]-3-fluoropropane-1-sulfonamide]
12 | 60 | 2.1 | Cc1cc(Oc2c(F)cccc2Cl)ncc1-n1ncc(C(=O)c2cc3cc(F)c(NS(=O)(=O)CCCF)cc3[nH]2)c1N [Example 4-2-024, N-[2-[5-amino-1-[6-(2-chloro-6-fluorophenoxy)-4-methylpyridin-3-yl]pyrazole-4-carbonyl]-5-fluoro-1H-indol-6-yl]-3-fluoropropane-1-sulfonamide]
35 | 52 | 2.4 | Cc1ccccc1Oc1cc(C)c(-n2ncc(C(=O)c3cc4cc(F)c(NS(=O)(=O)CCCF)cc4[nH]3)c2N)cn1 [Example 4-2-025, N-[2-[5-amino-1-[4-methyl-6-(2-methylphenoxy)pyridin-3-yl]pyrazole-4-carbonyl]-5-fluoro-1H-indol-6-yl]-3-fluoropropane-1-sulfonamide]
37 | 120 | 3.6 | Cc1cc(Oc2cccc(Cl)c2)ncc1-n1ncc(C(=O)c2cc3cc(F)c(NS(=O)(=O)CCCF)cc3[nH]2)c1N [Example 4-2-026, N-[2-[5-amino-1-[6-(3-chlorophenoxy)-4-methylpyridin-3-yl]pyrazole-4-carbonyl]-5-fluoro-1H-indol-6-yl]-3-fluoropropane-1-sulfonamide]
30 | 95 | 10 | Cc1cc(Oc2ccc(F)cc2)ncc1-n1ncc(C(=O)c2cc3cc(F)c(NS(=O)(=O)CCCF)cc3[nH]2)c1N [Example 4-2-027, N-[2-[5-amino-1-[6-(4-fluorophenoxy)-4-methylpyridin-3-yl]pyrazole-4-carbonyl]-5-fluoro-1H-indol-6-yl]-3-fluoropropane-1-sulfonamide]
120 | 340 | 15 | Cc1cc(Oc2cc(F)cc(F)c2)ncc1-n1ncc(C(=O)c2cc3cc(F)c(NS(=O)(=O)CCCF)cc3[nH]2)c1N [Example 4-2-028, N-[2-[5-amino-1-[6-(3,5-difluorophenoxy)-4-methylpyridin-3-yl]pyrazole-4-carbonyl]-5-fluoro-1H-indol-6-yl]-3-fluoropropane-1-sulfonamide]
5.5 | 28 | 0.64 | Cc1cc(Oc2cccc(F)c2F)ccc1-n1ncc(C(=O)c2cc3cc(F)c(NS(C)(=O)=O)cc3[nH]2)c1N [Example 4-2-029, N-[2-[5-amino-1-[4-(2,3-difluorophenoxy)-2-methylphenyl]pyrazole-4-carbonyl]-5-fluoro-1H-indol-6-yl]methanesulfonamide]
